# According to patent US20190375786A1, “STABLE PEPTIDES AND METHODS OF USE THEREOF” (Fred Hutchinson Cancer Research Center, priority 2016, published 2019):
# Tests used:
# Type in all cases: cell-based
# TEAD protein = assay: Binding of surface-displayed (SDGF) peptide to biotinylated target protein after reducing agent, flow cytometry; details: HEK-293 cells displaying peptide, 20 nM biotinylated target protein
# Protocol: Designed or engineered peptides of this disclosure were also tested to evaluate if the peptides' binding activity to their target protein (e.g., TEAD protein) was affected by exposure to reducing conditions. HEK-293T suspension cells were transfected with a surface display GFP FasL(SDGF) vector comprising SEQ ID NO: 39 (SDGF-SEQ ID NO: 39) or SDGF vector comprising SEQ ID NO: 43 (SDGF-SEQ ID NO: 43) construct. Cultures were grown for two days, followed by incubation in 10 mM GSH or 10 mM DTT. Finally, cells were stained with biotinylated-target protein to evaluate the binding activity of a peptide to the target protein. FIG. 15 illustrates the stability of peptides of SEQ ID NO: 39 and SEQ ID NO: 43 after exposure to a reducing agent. Each peptide was expressed on a cell surface and tested for binding to a target protein after cells expressing SDGF-SEQ ID NO: 43 or SEQ ID NO: 39 were exposed to a reducing agent. FIG. 15A illustrates a flow cytometry plot showing binding of HEK-293 suspension cells transfected with SDGF-SEQ ID NO: 39 (GFP) incubated for 5 minutes in PBS, 10 mM DTT, or 10 mM reduced glutathione (GSH) before staining with 20 nM biotinylated target protein and 20 nM AF647-streptavidin. FIG. 15B illustrates a flow cytometry plot showing binding of HEK-293 suspension cells transfected with SDGF-SEQ ID NO: 43 (GFP) incubated for 5 minutes in PBS, 10 mM DTT, or 10 mM reduced glutathione (GSH) before staining with 20 nM biotinylated target protein and 20 nM AF647-streptavidin. FIG. 15C illustrates quantification of the AF647 mean fluorescence intensity (MFI) of cells falling within the “slice” gate shown in FIG. 15A and FIG. 15B. […] In other words, peptides of SEQ ID NO: 39 and SEQ ID NO: 43 were resistant to reduction by GSH.
# trypsin = trypsin (Sus scrofa, UniProt P00761); assay: SDPR surface display protease resistance, anti-6xHis staining, trypsin; details: HEK-293 cells, up to 40 μg/ml trypsin for 20 minutes
# Protocol: (§1) Soluble peptides were exposed to 500 U/mL porcine trypsin and analyzed by HPLC. Protease resistance was also assessed by using SDPR-displaying peptides. The SDPR vector is similar to the a surface display GFP FasL(SDGF) vector, but contains a C-terminal 6×His tag (SEQ ID NO: 180) and all basic or aromatic amino acid residues on the stalk removed. Protease resistance is then tested by incubation of cells displaying peptides with trypsin or chymotrypsin, followed by incubation in 10 mM DTT, and staining with an anti-6×His fluorophore-labeled antibody (“6×His” disclosed as SEQ ID NO: 180). If peptides are uncleaved, they retain the His tag and are stained with by the antibody. A control protease-sensitive knottin peptide (SK) was used as a positive control. Cells displaying peptides were treated with up to 40 μg/ml trypsin or chymotrypsin.
# (§2) To determine the impact of protease treatment or reducing condition on the function of the peptides, i.e., binding activity, various binding or functional assays can be performed. […] After treatment with the protease and reducing agent, any linearized peptide product or degradation product resulting from reduction and/or proteolysis by treatment with a protease can be detected or analyzed by staining against the 6×His tag (SEQ ID NO: 180). […]
# chymotrypsin = assay: SDPR surface display protease resistance, anti-6xHis staining, chymotrypsin; details: HEK-293 cells, up to 40 μg/ml chymotrypsin for 20 minutes
# Protocol: as §1, §2
# Chain of trypsin (P00761 9-231): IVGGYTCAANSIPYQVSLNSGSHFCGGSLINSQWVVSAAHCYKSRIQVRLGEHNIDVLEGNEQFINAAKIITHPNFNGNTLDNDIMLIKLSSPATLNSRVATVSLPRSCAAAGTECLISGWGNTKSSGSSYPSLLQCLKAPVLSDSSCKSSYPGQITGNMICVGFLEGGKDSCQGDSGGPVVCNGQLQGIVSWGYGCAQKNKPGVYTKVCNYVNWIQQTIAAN
sequence,measurement,setting,value
GSPDEYIERAKECCKKQDIQCCLRIFDESKDPNVMLICLFCW [SEQ ID NO: 43],binding to target protein after DTT treatment,TEAD protein; 5 minutes in 10 mM DTT,no loss in binding
same,binding to target protein after GSH treatment,TEAD protein; 5 minutes in 10 mM GSH,no loss in binding
same,resistance of surface-displayed peptide to cleavage by trypsin,trypsin,partially resistant
same,resistance of surface-displayed peptide to cleavage by chymotrypsin,chymotrypsin,partially resistant
